Test results reported in patent US20190060340A1, “NOVEL AMINOGLYCOSIDES AND USES THEREOF IN THE TREATMENT OF GENETIC DISORDERS” (Technion Research & Development Foundation Limited, priority 2007, published 2019).

Key:
[1] = tested on: HEK-293 (human embryonic kidney); assay: Cell toxicity assay (XTT cell proliferation); format: cell-based; details: 48 hours
Procedure: (§1) After 1 day the medium was changed to medium without streptomycin and different concentrations of the tested compounds were added. After 48 hours a cell proliferation assay (XTT based colorimetric assay, Biological Industries) was performed, using the 5 hours incubation protocol, according to the manufacturer's instructions. Optical density (OD) was read using an Elisa plate reader. Cell viability was calculated as the ratio between the number of living cells in cultures grown in the presence of the tested compounds, versus the corresponding cell cultures which were grown without the tested compounds.

COS-7 (monkey kidney) = assay: Cell toxicity assay (XTT cell proliferation); format: cell-based; details: 48 hours
Procedure: as §1

Acute toxicity in mice = format: in vivo
TGA stop codon = assay: Preliminary tests for in vitro readthrough activity of the TGA stop codon; format: biochemical

Compound	LC50 HEK293 [1] [mg/L]	LC50 COS-7 (COS-7 (monkey kidney)) [mg/L]	acute toxicity in mice in comparison to paromomycin and gentamicin (Acute toxicity in mice)	in vitro readthrough activity of the TGA stop codon vs Compound 3 and paromomycin (TGA stop codon)
gentamicin [reference compound]	700 ± 80	490 ± 60	–	–
NCC[C@H](O)C(=O)N[C@@H]1CC(N)[C@@H](O[C@H]2OC(CO)[C@@H](O)C(O)C2N)C(O[C@@H]2O[C@H](CN)C(O)C2O)C1O (stereo partly shown) [Compound 37]	–	–	significantly reduced	significantly higher stop codon read-through activity
